Several values for one entry are separate records, joined by “and”; a condition that tells them apart may be missing. Identical values can stand only once.
Tests used:
[1] = system: hippocampal neurons; experiment: Indirect neurotoxicity of conditioned medium from AβO-treated microglia on hippocampal neurons; type: cell-based, mouse; settings: 25% CM, 24 hrs
Description: Cultures were washed extensively and changed to the Neurobasal medium with B27 supplement (NB/B27, Invitrogen) without serum and cultured for another 24 hrs. The NB/B27-based microglia CMs were collected, briefly centrifuged, and used immediately or frozen for future uses.
Hippocampal neuronal cultures were prepared from newborn wild type C57BL/6J mice according to the method of Xiang et al (26). Neurons were cultured in NB/B27 at a density of 2.5×10^5 cells/well in 12-well plates or 8×10^5 cells/well in 6-well plates for at least 14 days before they were treated with microglia CM.
Hippocampal neurons were prepared as described above and were plated onto 96-well plate at a density of 6×10^4 cells/well and cultured for 14 days. CM from microglia cultures was added onto neurons with indicated dilutions, and cultures were incubated for 24 hrs.
For immunofluorescent staining of neurons, cultures were fixed in 4% paraformaldehyde and stained with anti-PSD95 (1:200, Cell Signaling), anti-MAP2 (1:500, Chemicon) and anti-acetylated α-tubulin (1:250, Zymed). […] Immunostained images were observed under a Nikon Eclipse E600 microscope and photographed by a digital camera (SPOT RTke, SPOT Diagnostics, Sterling Heights, Mich.).
For quantification of the PSD95-immunoreactive puncta along the dendrites, photomicrographs of PSD95 immunostained cultures were randomly taken from each culture condition. The images were transformed to 8 bit gray scale and analyzed with the Image J program. The number of puncta in each photomicrograph was counted and normalized by dendritic length. The photography and analysis were conducted in an investigator-blinded manner
Lysates were briefly sonncated and cleared by centrifugation at 50,000 rpm for 10 min. Equivalent amounts of protein were analyzed by Tris/HCL gel electrophoresis. Proteins were transferred to polyvinylidene difluoride membranes and probed with antibodies. Visualization was performed using enhanced chemiluminescence (ECL, Amersham Pharmacia, Piscataway, N.J.).

[2] = Physiological parameters by I-STAT in venous blood of MCAO rats; type: in vivo, rat; settings: After Reperfusion, ±SD
[3] = target: T1, KCa3.1 (Mus musculus, UniProt O89109); experiment: Whole-cell patch-clamp of mouse microglia KCa currents; type: cell-based; settings: 1 μM TRAM-34; voltage-ramps −120 to +40 mV; FIG. 4A
T1 construct: endogenous in cells; host or cells: primary mouse microglia harvested from the astrocyte feeder layer
T1 sequence (O89109 whole entry): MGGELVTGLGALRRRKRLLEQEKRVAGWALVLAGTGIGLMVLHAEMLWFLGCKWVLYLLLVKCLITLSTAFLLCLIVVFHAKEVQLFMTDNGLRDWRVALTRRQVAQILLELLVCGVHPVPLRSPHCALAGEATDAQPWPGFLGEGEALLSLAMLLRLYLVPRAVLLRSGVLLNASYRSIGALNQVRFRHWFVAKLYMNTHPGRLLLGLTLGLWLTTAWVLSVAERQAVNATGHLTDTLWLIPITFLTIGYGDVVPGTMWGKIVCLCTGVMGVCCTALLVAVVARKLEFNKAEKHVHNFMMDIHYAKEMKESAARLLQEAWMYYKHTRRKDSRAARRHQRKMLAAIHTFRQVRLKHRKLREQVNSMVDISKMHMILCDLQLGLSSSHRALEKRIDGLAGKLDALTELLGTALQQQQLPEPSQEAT
Description: Microglia, that were “floating off” from their feeding astrocyte layer, were harvested with a pipette, washed, attached to poly-L-lysine coated cover-slips, and then studied in the whole-cell mode of the patch-clamp technique with an EPC-10 HEKA amplifier. The pipette solution contained 145 mM K^+ aspartate, 2 mM MgCl2, 10 mM HEPES, 10 mM K2EGTA and 8.5 mM CaCl2 (1 μM free Ca^2+), pH 7.2, 290 mOsm. To reduce chloride “leak” currents, we used a Na^+ aspartate external solution containing 160 mM Na^+ aspartate, 4.5 mM KCl, 2 CaCl2, 1 mM MgCl2, 5 mM HEPES, pH 7.4, 300 mOsm. K^+ currents were elicited with voltage ramps from −120 to 40 mV of 200 ms duration applied every 10 s. […] Cell capacitance, a direct measurement of cell surface area, was continuously monitored during recordings. KCa3.1 current density was determined by dividing the TRAM-34-sensitive slope conductance by the cell capacitance.

[4] = mice, previously determined; cited from earlier work
[5] = system: NFκB; experiment: NFκB assay in microglia; type: cell-based, mouse; settings: 2 hrs; 20 μM doxycycline, 1 μM TRAM-34; FIG. 2E
Description: The detection of cells with active NFκB was performed according to the method described by Franciosi, S., et al.; (2006) J Neurosci 26, 11652-11664. Briefly, microglia were plated as described above and treated with activators for 2 hrs. Cells were fixed and stained with anti-NF-κBp65 antibody (1:250, Chemicon) and with the nuclear dye DAPI.

[6] = system: microglia; experiment: AβO-induced microglia proliferation/activation (cell number); type: cell-based, mouse; settings: soluble AD hippocampus extracts
[7] = system: experimental autoimmune encephalomyelitis (EAE); settings: mice; cited from earlier work
[8] = system: microglia; experiment: Assay for nitric oxide (nitrite) in microglia conditioned medium; type: cell-based, mouse; settings: 24 hr
[9] = Plasma protein binding by ultrafiltration; type: in vitro ADME, rat; settings: rat plasma spiked with 50 and 100 μM
Description: (§1) The centrifugate (=free TRAM-34) was directly analyzed for TRAM-34 by HPLC-MS. The retentate was collected by inverting the filter into an Eppendorf tube and spinning at 14000 rpm for 15 min.

[10] = system: plasma protein; experiment: Plasma protein binding by ultrafiltration; type: in vitro ADME, rat
Description: as §1

[11] = Physiological parameters by I-STAT in venous blood of MCAO rats; type: in vivo, rat; settings: ±SD
Description: […] […] Slices were then fixed in 10% buffer formalin embedded in paraffin and sectioned at 5 Sections were stained with hematoxylin & eosin and scanned. The resulting jpg images were analyzed in Adobe Photoshop CS3 for infarct area using the Magnetic Lasso tool to outline the area and the Histogram tool to determine the number of pixels in the respective area. Percent infarct for each slice was calculated as: (pixels in […]/pixels in whole control hemisphere)×100. Percentage of total infarct area of whole hemisphere was calculated as: (summation of pixels in infarct from 8 slices/summation of pixels in whole control hemisphere from 8 slices)×100. The degree of brain shrinkage was calculated from the same data.

[12] = After Reperfusion, TRAM-34 10 mg/kg
[13] = After Reperfusion, TRAM-34 40 mg/kg
[14] = Day-7 after MCAO, TRAM-34 10 mg/kg
[15] = Day-7 after MCAO, TRAM-34 40 mg/kg

With `Clc1ccccc1C(c1ccccc1)(c1ccccc1)n1cccn1` [TRAM-34, 1-[(2-chlorophenyl)diphenylmethyl]-1H-pyrazole] the “dendritic morphology of neurons after CM from AβO-treated microglia co-incubated with inhibitor” value [1] was “did not alter the dendritic morphology”, the “levels of Ac-TN, MAP2, PSD95, and GRIP1 after CM from AβO-treated microglia co-incubated with inhibitor” value ([1]; Western blot) was “did not cause significant decreases” and the “AβO-CM-induced reduction of PSD95-immunoreactive puncta” value ([1]; microglia co-treated with 20 μM doxycycline or 1 μM TRAM-34, FIG. 6D) was “prevented”. The BUN ([2]; TRAM-34 10 mg/kg) was 12.8 ± 7.2 mg/dL, the Glucose ([2]; TRAM-34 10 mg/kg) was 179.2 ± 48.2 mg/dL and the “Na^+” value ([2]; TRAM-34 10 mg/kg) was 134.4 ± 2.3 mmol/L. The BUN ([2]; TRAM-34 40 mg/kg) was 22.2 ± 4.0 mg/dL, the Glucose ([2]; TRAM-34 40 mg/kg) was 171.8 ± 54.3 mg/dL and the “HCO3^−” value ([2]; TRAM-34 40 mg/kg) was 32.5 ± 5.7 mmol/L. For the same molecule, the pH ([2]; TRAM-34 40 mg/kg) was 7.4 ± 0.13, the “sensitivity of voltage-independent current component” value [3] was “sensitive” and the half-life [4] was 1 h. For the same molecule, the “AβO-induced NFκB activation (p65-immunoreactive cells)” value [5] was “prevented”, the “LPS-induced NFκB activation” value [5] was “not significantly” and the “microglia activation / mitogenic effect induced by human brain AβO” value [6] was “blocked”. For the same molecule, the “experimental autoimmune encephalomyelitis (EAE)” value [7] was “treats”, the “microglia NO production, compound alone” value ([8]; without AβO) was “did not affect NO production” and the “AβO-induced increase of microglia NO production” value ([8]; 20 μM doxycycline, 1 μM TRAM-34, FIG. 2F) was “prevented”. For the same molecule, the fraction unbound [9] was 0.02, the “unbound (=free) fraction” value ([10]; rat plasma) was 2.0±0.4% and 2% and the plasma protein binding ([10]; rat plasma spiked with 50 and 100 μM) was 98%. For the same molecule, the “HCO3^−” value [11, 12] was 33.8 ± 6.4 mmol/L, the Hemoglobin [11, 12] was 14.3 ± 1.5 g/dL and the “K^+” value [11, 12] was 6.3 ± 1.1 mmol/L. It also gave a pCO2 [11, 12] of 66.6 ± 28.3 mm Hg, a pH [11, 12] of 7.34 ± 0.1 and a Hemoglobin [11, 13] of 14.5 ± 1.4 g/dL. For the same molecule, the “K^+” value [11, 13] was 5.7 ± 0.5 mmol/L, the “Na^+” value [11, 13] was 135.5 ± 2.3 mmol/L and the pCO2 [11, 13] was 60.8 ± 33.4 mm Hg. The BUN [11, 14] was 18.7 ± 6.8 mg/dL, the Glucose [11, 14] was 185.2 ± 41.2 mg/dL and the “HCO3^−” value [11, 14] was 29.7 ± 2.5 mmol/L. For the same molecule, the Hemoglobin [11, 14] was 12.7 ± 2.1 g/dL, the “K^+” value [11, 14] was 4.8 ± 1.1 mmol/L and the “Na^+” value [11, 14] was 137.7 ± 4.1 mmol/L. The pCO2 [11, 14] was 58.1 ± 12.7 mm Hg, the pH [11, 14] was 7.3 ± 0.06 and the BUN [11, 15] was 19.6 ± 4.7 mg/dL. For the same molecule, the Glucose [11, 15] was 201.1 ± 40.1 mg/dL, the “HCO3^−” value [11, 15] was 29.2 ± 1.3 mmol/L and the Hemoglobin [11, 15] was 13.3 ± 1.5 g/dL. For the same molecule, the “K^+” value [11, 15] was 4.2 ± 0.3 mmol/L, the “Na^+” value [11, 15] was 138.8 ± 3.5 mmol/L and the pCO2 [11, 15] was 49.3 ± 7.3 mm Hg. It also gave a pH [11, 15] of 7.4 ± 0.07.

Source: patent US20130281504A1, “Reduction of Microglia-Mediated Neurotoxicity by KCa3.1 Inhibition” (THE REGENTS OF THE UNIVERSITY OF CALIFORNIA, priority 2010, published 2013)
